For assay [1], the system named is Staphylococcus-xylosus/Staphylococcus-cohnii. Put plainly: Lab headspace ammonia test on ground straw with synthetic poultry urine, Example 4. Format: cell-based. The method, then:
(§1) Synthetic Poultry Urine Preparation. In these Examples, synthetic urine was prepared as follows for each 100 g of synthetic poultry urine needed. The amounts can be scaled up or down as needed. The following components were added to a sterilized bottle: Urea (USP Grade): 0.43 g, Ammonia: 0.46 g, K3PO4 (USP grade): 6.8 g, Milli-Q water: 83.52 g. The bottle was capped and placed on a bottle roller at ambient temperature for 1 to 3 hours. The pH of the solution was measured to confirm the pH is between 13 and 14.
(§2) Bacteria Preparation. In these Examples, the Staphylococcus-cohnii and the Staphylococcus-cohnii/Staphylococcus-xylosus bacteria strains used were environmental isolates from poultry manure and cat litter respectively. As used herein, “Staphylococcus-cohnii/Staphylococcus-xylosus” refers to a bacteria strain that is an environmental isolate from cat feces that through DNA sequencing has been identified to be genetically similar to both Staphylococcus-cohnii and Staphylococcus-xylosus. The identifications were determined by DNA sequencing at an external lab with genus confidence level.
(§3) The bacteria strains were isolated on a sterile tryptic soy agar plate, grown for 2 days in a 30 degrees ° C. incubator and stored in a refrigerator. A fresh plate was prepared every 2 weeks.
The bacteria were grown the day before the start of the experiments by taking a loopful of the bacteria from the agar plate with a 10 uL loop and immersing it in 10 mL sterile tryptic soy broth filling half of the container. All bacteria used in the Examples are aerobic and therefore need air on top of the growth medium. […] The count of the bacteria in the growth media was determined by the serial dilutions method, where 10 serial dilutions of the growth medium in sterile Physiological Buffered Saline (PBS) solution are performed with 10× dilution each time. […] The numbers of colonies were counted on the dilution plate that had between 30 and 300 colony forming units (CFU) on it. The number of colony forming units in the original growth media was then determined by back-calculating the number of dilutions. […]

For another assay, the system named is Staphylococcus-cohnii. Put plainly: Lab headspace ammonia test on ground straw with synthetic poultry urine, Example 3. Format: cell-based. The method, then:
as §1, §2, §3
The bacteria were grown the day before the start of the experiments by taking a loopful of the bacteria from the agar plate with a 10 uL loop and immersing it in 10 mL sterile tryptic soy broth filling half of the container. All bacteria used in the Examples are aerobic and therefore need air on top of the growth medium. The vials were incubated at 30 degrees C. in a shaking incubator at 100 rpm for 24 hours. The count of the bacteria in the growth media was determined by the serial dilutions method, where 10 serial dilutions of the growth medium in sterile Physiological Buffered Saline (PBS) solution are performed with 10× dilution each time. Each dilution was plated twice using 100 μL of growth media for each plate. The numbers of colonies were counted on the dilution plate that had between 30 and 300 colony forming units (CFU) on it. The number of colony forming units in the original growth media was then determined by back-calculating the number of dilutions. […] All pipettes, containers, tips, spoons etc. equipment used for these experiments were sterile in order to prevent contamination with other bacteria. Litters, treatments and chemicals used for preparing synthetic urine were used as-is, without sterilization.
Preparation of grinded straw bedding. A sterilized lab blender was loaded with straw and grinded at pulsed, high setting for 15-45 seconds. Then a new batch of straw was loaded to the blender. […]

Assay [2] in a line: Barrel test experiments on used broiler litter, Examples 5-8. Particulars: used rice hull litter in tubs, vs untreated control. An excerpt:
Used litter (rice hulls which may also contain poultry manure, moisture, feed residue and/or feathers) were acquired from a commercial broiler chicken farm and transported in plastic barrels. Twenty three kilograms of litter were weighed into 0.4 m^2 plastic tubs to cover the tubs to a depth of approximately 10 cm. The tubs were stored uncovered in a poultry rearing facility, and environmental conditions were controlled to mimic the conditions that would be experienced in a commercial broiler house (temperature around 32° C.).
Tubs were treated with NaHSO4 at a dose equivalent to 1 wt % Ammonia was then measured for 35 days.
Tubs were treated in two steps. A dose equivalent to 1 wt % of NaHSO4 as Acidifier was added to the tubs. After 24 hours, a dose equivalent to 3.2 wt % of Na2EDTA was added and dispersed. Ammonia was then measured for 35 days.
Tubs were treated in two steps. A dose equivalent to 1 wt % of NaHSO4 as Acidifier was added to the tubs. After 24 hours, a dose equivalent to 3.2 wt % of K2EDTA was added as an aqueous solution. Ammonia was then measured for 35 days.
Tubs were treated in two steps. A dose equivalent to 1.23 wt % of EDTA Acid was added to the tubs. After 24 hours, a dose equivalent to 3.2 wt % of Na2EDTA was added and dispersed. Ammonia was then measured for 35 days.

Setting [3] is: 1 day after treatment, vs untreated control.
Where [4] appears, read: 3 days after treatment, untreated control 200+ ppm (above tube limit).

Molecules are shown by their SMILES.

With `O=C(O)CN(CCN(CC(=O)O)CC(=O)O)CC(=O)O.[K].[K]` [2.5% K2EDTA, dipotassium ethylenediaminetetraacetic acid], the “% improvement in headspace ammonia” value is 73% in assay [1] (setting [3]), 12+ % in assay [1] (setting [4]), 64% with Staphylococcus-cohnii (setting [3]) and 8+ % in the assay on Staphylococcus-cohnii (setting [4]).

Regarding `O=C(O)CN(CCN(CC(=O)O)CC(=O)O)CC(=O)O.[K].[K]` [2.5% K2EDTA sprayed on top, dipotassium ethylenediaminetetraacetic acid], the entries for the “% improvement in headspace ammonia” value (in assay [1] (setting [3]); in the assay on Staphylococcus-cohnii (setting [3]); with Staphylococcus-cohnii (setting [4])) were 57%, 64% and 5+ %, respectively.

With `O=S(=O)([O-])O.[Na+]` [1 wt % NaHSO4, NaHSO4], the “% improvement in headspace ammonia” value in assay [2] (3 days after treatment) is 92%; in assay [2] (7 days after treatment) it was 74%; in assay [2] (14 days after treatment) it was 37%; in assay [2] (21 days after treatment) it was −37%; in assay [2] (28 days after treatment), −16%.

(Values after patent US11420181B2, “Methods for suppression of ammonia formation from staphylococcus-xylosus and staphylococcus-cohnii” (Dow Global Technologies LLC, priority 2016, dated 2022).)
